Experimental data: ChEMBL document CHEMBL3885861, “Open TG-GATES”

Species: Rattus norvegicus
Assay: Open TG-GATES - Regimen: Single
Type: toxicity, organism-based, Sprague-Dawley
Design: regimen Single, gender Male, age 6 weeks
Settings: in vivo, po, 0 mg/kg, route gavage, dose level Control; for APTT / Bas / Eos / Fbg / Hb / Ht / Lym / MCH / MCHC / MCV / Mono / Neu / PT / Plat / RBC / Ret / WBC: tissue Blood; for KIDNEY_L / KIDNEY_R / KIDNEY_TOTAL: tissue Kidney; for LIVER: tissue Liver; for A/G / ALP / ALT / AST / BUN / CRE / Ca / Cl / DBIL / GLC / IP / K / LDH / Na / PL / RALB / TBIL / TC / TG / TP / gamma-GTP: tissue Plasma

## CCOc1ccc(NC(=O)CC(C)O)cc1 (configuration not stated) [BUCETIN]
3 h
  TERMINAL_BW: 208.8 g
  APTT: 14.7 s
  Bas: 0%
  Eos: 1%
  Fbg: 294.8 mg/dL
  Hb: 12.7 g/dL
  Ht: 38.3%
  Lym: 78.2%
  MCH: 21.4 pg
  MCHC: 33.2%
  MCV: 64.5 fL
  Mono: 3.2%
  Neu: 17.2%
  PT: 13.6 s
  Plat: 115.4 x10_4/uL
  RBC: 594.2 x10_4/ul
  Ret: 8.7%
  WBC: 84.1 x10_2/uL
  KIDNEY_L: 0.9 g
  KIDNEY_R: 0.9 g
  KIDNEY_TOTAL: 1.8 g
  LIVER: 9.1 g
  A/G: 0.9
  ALP: 1389.8 IU/L
  ALT: 35.8 IU/L
  AST: 75 IU/L
  BUN: 9.8 mg/dL
  CRE: 0.2 mg/dL
  Ca: 10.6 mg/dL
  Cl: 105.2 meq/L
  DBIL: 0.02 mg/dL
  GLC: 178 mg/dL
  IP: 8.6 mg/dL
  K: 4.3 meq/L
  LDH: 77.2 IU/L
  Na: 141.8 meq/L
  PL: 143.4 mg/dL
  RALB: 2.5 g/dL
  TBIL: 0.06 mg/dL
  TC: 81.6 mg/dL
  TG: 50.4 mg/dL
  TP: 5.4 g/dL
  gamma-GTP: 2 IU/L
6 h
  TERMINAL_BW: 211.1 g
  APTT: 16.7 s
  Bas: 0.2%
  Eos: 1%
  Fbg: 303.8 mg/dL
  Hb: 13.3 g/dL
  Ht: 40%
  Lym: 83.6%
  MCH: 21.4 pg
  MCHC: 33.3%
  MCV: 64.4 fL
  Mono: 1.8%
  Neu: 13%
  PT: 13.4 s
  Plat: 117.3 x10_4/uL
  RBC: 619.6 x10_4/ul
  Ret: 8.6%
  WBC: 97.2 x10_2/uL
  KIDNEY_L: 0.9 g
  KIDNEY_R: 0.9 g
  KIDNEY_TOTAL: 1.9 g
  LIVER: 8.9 g
  A/G: 0.9
  ALP: 1305.2 IU/L
  ALT: 32.4 IU/L
  AST: 66.4 IU/L
  BUN: 8.8 mg/dL
  CRE: 0.2 mg/dL
  Ca: 10.8 mg/dL
  Cl: 105.6 meq/L
  DBIL: 0.016 mg/dL
  GLC: 178.2 mg/dL
  IP: 9.2 mg/dL
  K: 4.3 meq/L
  LDH: 70.4 IU/L
  Na: 142.8 meq/L
  PL: 143.2 mg/dL
  RALB: 2.5 g/dL
  TBIL: 0.058 mg/dL
  TC: 77.6 mg/dL
  TG: 62.8 mg/dL
  TP: 5.4 g/dL
  gamma-GTP: 1.4 IU/L
9 h
  TERMINAL_BW: 208.6 g
  APTT: 17.3 s
  Bas: 0%
  Eos: 1%
  Fbg: 299.8 mg/dL
  Hb: 13 g/dL
  Ht: 39.1%
  Lym: 79.8%
  MCH: 21.3 pg
  MCHC: 33.2%
  MCV: 64.3 fL
  Mono: 2.6%
  Neu: 16.6%
  PT: 14.3 s
  Plat: 114.6 x10_4/uL
  RBC: 608.6 x10_4/ul
  Ret: 8.1%
  WBC: 87.3 x10_2/uL
  KIDNEY_L: 0.9 g
  KIDNEY_R: 0.9 g
  KIDNEY_TOTAL: 1.8 g
  LIVER: 8.3 g
  A/G: 0.9
  ALP: 1557.4 IU/L
  ALT: 32.8 IU/L
  AST: 68.6 IU/L
  BUN: 9.4 mg/dL
  CRE: 0.2 mg/dL
  Ca: 10.5 mg/dL
  Cl: 106 meq/L
  DBIL: 0.018 mg/dL
  GLC: 178.6 mg/dL
  IP: 9.8 mg/dL
  K: 4 meq/L
  LDH: 70.2 IU/L
  Na: 142.2 meq/L
  PL: 135 mg/dL
  RALB: 2.6 g/dL
  TBIL: 0.06 mg/dL
  TC: 73.8 mg/dL
  TG: 57.2 mg/dL
  TP: 5.4 g/dL
  gamma-GTP: 1.4 IU/L
24 h
  TERMINAL_BW: 224 g
  APTT: 18.6 s
  Bas: 0.2%
  Eos: 0.8%
  Fbg: 290.6 mg/dL
  Hb: 13.4 g/dL
  Ht: 40.5%
  Lym: 79%
  MCH: 21.3 pg
  MCHC: 33%
  MCV: 64.4 fL
  Mono: 2.6%
  Neu: 16.6%
  PT: 14.3 s
  Plat: 121.1 x10_4/uL
  RBC: 628.8 x10_4/ul
  Ret: 7.6%
  WBC: 102.9 x10_2/uL
  KIDNEY_L: 1 g
  KIDNEY_R: 1 g
  KIDNEY_TOTAL: 2 g
  LIVER: 10.4 g
  A/G: 0.9
  ALP: 1587.4 IU/L
  ALT: 40.4 IU/L
  AST: 72.2 IU/L
  BUN: 14.6 mg/dL
  CRE: 0.2 mg/dL
  Ca: 11.1 mg/dL
  Cl: 105.2 meq/L
  DBIL: 0.022 mg/dL
  GLC: 180.8 mg/dL
  IP: 7.9 mg/dL
  K: 4.1 meq/L
  LDH: 74.6 IU/L
  Na: 143.6 meq/L
  PL: 148.2 mg/dL
  RALB: 2.6 g/dL
  TBIL: 0.05 mg/dL
  TC: 76.2 mg/dL
  TG: 104.2 mg/dL
  TP: 5.6 g/dL
  gamma-GTP: 1.2 IU/L
